Reference: a melting point compilation (Tetko et al.; mined from patent text by program, amines drawn as free bases though some values may be those of a salt)
Residues, ends and D or L forms follow the SMILES beside them. *: point of attachment. Boc = CC(C)(C)OC(=O)*

Compound | melting point
Cc1cccc(-c2[nH]c(C(C)C)nc2-c2cccc(-c3ccc(NS(=O)(=O)C4CC4)cn3)c2)n1 | 133 to 136 °C
CC(=O)OC1Cc2ccc(F)cc2/C1=C/C(N)=O (stereo not drawn) | 202 to 203 °C
COc1ccc(-c2nc(C(C)=O)c[nH]2)cc1 | 248 to 250 °C
OCCCOc1cc(-c2ccccc2)cc(-c2ccccc2)n1 | 94 °C
COc1c(C#N)c2c(c3c1OC(C)(C)C3)C(c1ccccc1)=NC(C)(C)C2 | 166 to 168 °C
CCCC(C)NC1=NS(=O)(=O)c2cc(Cl)c(Cl)cc2N1 (stereo not drawn) | 217 to 220 °C
Cc1cn(C)c2c(OCc3ccccc3)cc3c(c12)[C@H](CO)CN3C(=O)OC(C)(C)C | 138 to 140 °C
COc1cc(N2CCN(c3c(C)c(C)c4c(c3C)CC(C)(C)O4)CC2)ccc1F | 152 to 155 °C
CCCCCC(C)(C)NC(=O)c1nn(-c2ccc(F)cc2F)c2c1C1CCC2C1 (stereo not drawn) | 76 to 78 °C
O=C(Nc1ccc(Cl)cc1Cl)c1ccccc1SSc1ccccc1C(=O)Nc1ccc(Cl)cc1Cl | 227 to 228 °C
CCOC(=O)C1Cc2c(c(Cl)cc3c(-c4ccccc4)noc23)O1 (stereo not drawn) | 123 to 125 °C
C[C@@]1(C(=O)O)CSC(Cc2cc(F)cc(F)c2)=N1 | 120 to 122 °C
CN(CCNc1ccc2c3c(nn2CCN)-c2c(OCc4ccccc4)ccc(OCc4ccccc4)c2C(=O)c13)Cc1ccccc1 | 169 to 172 °C
CC(C)Oc1ccccc1-c1cc(=O)c2cc(-c3nnn[nH]3)ccc2o1 | 293 to 295 °C
CC(C)Oc1cc(COc2cc(CCC(=O)O)n(-c3ccccc3)n2)cc(COc2ccc(Cl)cc2Cl)c1 | 108 to 110 °C
CC1(C)Cc2c(CO)c(O)c3c(c2C(c2ccccc2)=N1)CC(C)(C)O3 | 210 to 230 °C
CN1CC(=O)Nc2cccc(Br)c2C1=O | 232 to 233 °C
Oc1nc2ccc3ncsc3c2nc1O | > 360 °C
CCCCCCCCCCCCCCC(OC)C(=O)OC (stereo not drawn) | 28.6 to 30.6 °C

Compound | melting point
CC(C)CC(N)C(=O)NC(CCCCNC(=O)OC(C)(C)C)C(=O)O (stereo not drawn) (H-Leu-Lys(Boc)-OH; configuration not given here) | 142 to 143 °C
CC(=O)OC/C=C/c1ccc(-c2ccccc2C)cc1 | 54 to 56 °C
O=c1oc(-c2ccc(SC(F)(F)F)cc2)nc2cccc(Cl)c12 | 135 to 140 °C
CCCc1nc(I)c(C=O)[nH]1 | 141 to 142 °C
CSc1nn(-c2c(Cl)cc(C(F)(F)F)cc2Cl)c(N)c1S(=O)(=O)c1cccc(C(F)(F)F)c1 | 201 to 203 °C
COC(=O)c1c(OC(C)=O)cc2cc(Br)ccc2c1C | 78 °C
O=[N+]([O-])c1cc(NCc2c(F)c(F)c(C(F)(F)F)c(F)c2F)ccc1O | 126 to 128 °C
O=c1[nH]nc2c(Br)cccn12 | 297 to 299 °C
Cc1cc(C)cc(Oc2ccc(Oc3cc(C)cc(C)c3)cc2)c1 | 103 °C
Cc1ccc2c(c1)CC(=O)N2c1c(F)cccc1Cl | 137 to 140 °C
CC(Cl)(Cl)CC(O)(Cn1cncn1)c1ccc(Cl)cc1 (stereo not drawn) | 106 °C
N#Cc1ncc(SCC(=O)O)nc1C#N | 141 to 143 °C
CCc1cn(C2OC(CO)C(O)C2O)c(=O)[nH]c1=O (stereo not drawn) | 180 to 181 °C
O=C1Cc2cc(-c3cccc([N+](=O)[O-])c3)ccc2N1 | 269 °C
N#Cc1cnn2c3c(c(C(=O)O)nc12)CCN3C1CCCCC1 | 253 to 255 °C
OCC(O)Cc1nccn1CCCCc1ccc(OCc2coc(/C=C/c3ccc(F)cc3F)n2)cc1 (stereo not drawn) | 126 to 128 °C
O=Cc1c(O)cccc1OCc1ccc(-c2nnn[nH]2)cc1 | 206 °C
Cc1ccc(S(=O)(=O)NP(N)(N)=O)cc1 | 114 to 118 °C
Cc1nc2c(N)nc3ccccc3c2s1 | 184 to 187 °C

Compound | melting point
O=c1cc(C2CCc3ccccc3C2)[nH]c2ccccc12 (racemic) | > 300 °C
COc1ccc(Oc2cccc3ncnc(NC(=O)Nc4cccc(Br)c4)c23)cc1 | 249 to 251 °C
C=CCOc1ccc(C(C)(C)C)cc1C(C(N)=O)c1ccccc1 (stereo not drawn) | 172 to 174 °C
Cc1c2n(c3ccccc13)C(=O)C(CO)(Cc1ncn(C(c3ccccc3)(c3ccccc3)c3ccccc3)c1C)CC2 (stereo not drawn) | 85 to 88 °C
CCC1(C)Cc2cc(OC)c(Cl)c(Cl)c2C1=O (stereo not drawn) | 121 °C
O=Cc1cccc2sc(-c3ccccc3)nc12 | 127 to 128 °C
COC(=O)c1cc(N)cs1 | 76 to 78 °C
Cc1nc2nc(C(F)(F)F)cc(-c3cccnc3)n2n1 | 195 to 197 °C
CC(C)CCCC(C)C1CCC2C3=CC=C4CC(O)CC(O)C4(C)C3CCC21C (stereo not drawn) | 155 to 158 °C
Cc1ccc(C(=O)N[C@H](C)C(N)=O)cc1-n1c(C)cc(OCc2ccccc2CNC(=O)Nc2cc(C(C)(C)C)nn2-c2ccc(O)c(Cl)c2)c(Cl)c1=O | 192 to 193 °C
COC(=O)CCCCCCCCC=CCCCCCCCCC(=O)OC | 44 °C
Nc1ccnc(-c2nc(=O)c3ccccc3s2)c1 | 208 °C
CO/C(=C\C=C\c1cc2ccccc2[nH]1)C(=O)O | 189 to 190 °C
O=Cc1cc(Oc2c(Cl)cc(C(F)(F)F)cc2Cl)ccc1[N+](=O)[O-] | 115 °C
CN(C)C(=O)c1ccc(C=CC(=O)c2cccc(OCc3ccc4ccc(Cl)cc4n3)c2)o1 | 141 to 142 °C
O=C1CN(c2ccccc2)C(=O)C1c1ccccc1 (stereo not drawn) | 285 to 287 °C
CCCCCCOc1c(OC)cc(N)c2nccc(C)c12 | 69 to 71 °C
O=C(COCc1cc(Br)cc2[nH]c(=O)c(=O)[nH]c12)Nc1ccccc1 | > 250 °C

Further lines, results first:

melting point | Compound
163 to 164 °C | O=P(O)(O)Cc1ccc(C(F)(F)F)cc1
97 to 100 °C | CC(C)COC(=O)/C=C/C1NC(=O)CN1C(=O)OCc1ccccc1 (stereo not drawn)
157 to 158 °C | COC(=O)[C@H](Cc1ccc(O)cc1)NC(=O)C1(NC(=O)[C@@H](SC(C)=O)C(C)C)CCCC1
196 to 198 °C | NS(=O)(=O)c1ccc(C(=O)NCCCN2CCOCC2)cc1
150 to 151 °C | CCc1ccc(NC(=O)c2cc(C(C)(C)C)ccc2S)cc1
250 °C | NS(=O)(=O)c1ccc(-c2cccc(-c3nc(-c4ccc(C(F)(F)F)nc4)cc(C(F)(F)F)n3)c2)s1
79 to 80 °C | CCC(=O)c1ccc2cc(OC(C)C)ccc2c1
129 to 131 °C | COc1cc(OC)c(-c2cc3ccccc3n2C)cc1C=CC(=O)c1ccc(S(=O)(=O)NO[Si](C)(C)C(C)(C)C)cc1
> 300 °C | CCn1cc(C(=O)O)c(=O)c2cc(F)c(N3CC4CCCC3CN4C)c(F)c21 (stereo not drawn)
198 to 199 °C | Cc1ccc(C2=NC(O)(C(F)(F)F)CN2c2ccc(S(C)(=O)=O)cc2)cc1 (stereo not drawn)
187 to 188 °C | CCN1C(CNC(=O)c2cc(Cl)c(N)cc2OC)CCC1c1ccccc1 (stereo not drawn)
127 to 128 °C | O=C(O)CCn1cccc1Cn1ccnc1
151 to 160 °C | CC1CC2C3CCC4=CC(=O)C=CC4(C)C3=CCC2(C)C1C(=O)COS(=O)(=O)c1ccc([N+](=O)[O-])cc1 (stereo not drawn)
254 to 255 °C | COC(=O)c1coc(-c2ncn3c2CN(C)C(=O)c2sccc2-3)n1
228 °C | CCOC(=O)C1=CC(C(=O)c2cc(C)ccc2O)=CN2CCc3c([nH]c4ccc(OC)cc34)C12C(=O)OCC (stereo not drawn)
116 °C | CCOC(=O)Nc1ccc(C(=O)c2ccccc2)cc1COC1CCCCO1 (stereo not drawn)
148 to 150 °C | COc1ccc(CCNC(=O)C(=O)NCc2ccc([N+](=O)[O-])cc2)cc1OC1CCCC1
138 to 140 °C | CC(C)(O)C(=O)Nc1ccc(Sc2ccc(NS(C)(=O)=O)cc2)cc1Cl
116 to 117 °C | COc1ccc2c(ccn2CC(=O)c2ccccc2Br)n1
116 to 118 °C | O=C(CNC(=O)c1cc([N+](=O)[O-])ccc1Cl)OCc1ccccc1
69 to 70 °C | CCCc1cc2cc(NC(=O)OCC)ccc2o1

melting point | Compound
193 to 195 °C | O=C1NCN(c2ccccc2)C12CCCCC2
98 to 101 °C | CCCCOc1cc(CNCCCN2CCCCC2)cc(S(N)(=O)=O)c1Cc1ccccc1
243 to 244 °C | CN1CCN(C(=O)c2cnc(S)n2Cc2cc(F)cc(F)c2)CC1
> 250 °C | O=C(NCc1ccn(C2=CC3=C(CC2)CCc2[nH]c(=O)c(=O)n(O)c23)c1)Nc1ccccc1
82 °C | Cc1cc(-n2ccnc2)c2cccc(OCc3c(Cl)ccc(S(=O)(=O)N4CCC[C@H]4C(=O)N(C)CCCN(C)CCCCO)c3Cl)c2n1
193 to 196 °C | Cc1cc2cc(CN3CCC(CCC(=O)N(C)C)CC3)cnc2cc1NC(=O)c1ccc(-c2ccc(F)cc2)cc1
171 °C | CC(C)(C)c1ccc2[nH]c(C(=O)c3ccc(Cl)cc3)c(CC(=O)O)c2c1
105 to 108 °C | CCOC(=O)c1ccc(N(CCO)C(=O)Nc2ccc(C3CCN(C(=O)C(F)(F)F)CC3)cc2)cc1
147 to 149 °C | CN1CCN(c2cc(Cl)cc3c2c(=O)n(Cc2ccccc2F)c(=O)n3Cc2ccccc2)CC1
155 to 159 °C | O=C(N[C@H](CC1CCCCC1)CN1CCN(c2nccc3ccccc23)CC1)C1CCCCC1
108 °C | N#Cc1ccc([C@H]2CC[C@H](CO)CC2)cc1
125 to 128 °C | COCCNC(N)=Nc1ccccc1N1CCOCC1
194 to 196 °C | CC(CC(=O)Nc1c(Cl)ccc2nc(N3CCNCC3)ccc12)c1ccccc1 (stereo not drawn)
76 to 77.5 °C | CC(C)(C(=O)Nc1cc(F)ccc1F)N1COC(C=O)=C(c2ccccc2)C1=O
220 to 222 °C | CN1C(=O)C(C(=O)Nc2ccc(Cl)cc2)S(=O)(=O)c2ccccc21 (stereo not drawn)
103 to 104 °C | C=CCOc1cc(COC2CCCCO2)ccc1OCCI (stereo not drawn)
156 to 161 °C | C[C@@H]1Cc2ccsc2[C@H](c2cccs2)N1CCNS(=O)(=O)c1ccc(N)cc1 (relative stereo)
256 to 258 °C | Cc1nc(NC(=O)c2ccc(C#N)cc2)sc1C(=O)NCc1ccccc1
60 to 62 °C | Cc1cccc(C(=O)C=C2CCCN2C)c1
130 °C | CC(=O)N1CC(=O)N(CCc2ccccc2)C(=O)C1
133 to 134 °C | O=S1(=O)NCN(CCF)c2ccc(F)cc21
